# Source: PMC10257182, “Discovery of senolytics using machine learning” (Nature Communications, 2023)
# “And” between values parts separate entries of the source, which are not always exact repeats. Equal entries are not always repeated. Where two headings read alike, the source gives them in different places.
# Assays:
# Assay type in all cases: cell-based, human
# [1] = system: senescent IMR90 ER:RAS cells (4-OHT-induced); assay: Nuclei count (Hoechst, high content imaging) senolytic assay, oncogene-induced senescence (OIS) model, senescent cells
# How it was run: (§1)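 Cells seeded, left 24 h, then dosed across a 10-point […] series (10 μM down to 10 nM) with DMSO control. After 72 h, wells were fixed, permeabilised and stained with Hoechst. Nuclei were counted by high-content imaging in senescent and non-senescent IMR90 ER:RAS cultures.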
# [2] = system: non-senescent control IMR90 ER:RAS cells; assay: Nuclei count (Hoechst, high content imaging) senolytic assay, OIS model, non-senescent control cells; conditions: Homo sapiens
# How it was run: as §1
# [3] = system: senescent A549 cells (etoposide-induced); assay: Nuclei count senolytic assay, therapy-induced senescence (TIS) model, senescent cells; conditions: for % Cell Survival: senescence cells, single replicate
# How it was run: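 Senescence in A549 cells is induced by 48 h of 100 μM etoposide followed by three days without drug, alongside non-senescent controls. Cells are seeded, rested 24 h, then exposed 72 h to compounds (10 nM–10 μM final, […] steps, triplicate) before nuclei are counted by imaging.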
smiles,measurement,setting,value
"COc1cc(O)c2c(=O)cc(-c3ccc(OC)c(-c4c(O)cc(O)c5c(=O)cc(-c6ccc(O)cc6)oc45)c3)oc2c1 [Ginkgetin, ginkgetin]",viability at 10 µM,"[1]; Homo sapiens, IMR-90, 72 h, Senescent, log (dose) [M] -5, 72 h, mean n=3 (Fig 3C), read-out: Mean % Cell Survival",5.11%
same,viability at 4.677 µM,"[1]; Homo sapiens, IMR-90, 72 h, Senescent, log (dose) [M] -5.33, 72 h, mean n=3 (Fig 3C), read-out: Mean % Cell Survival",9.69%
same,viability at 2.188 µM,"[1]; Homo sapiens, IMR-90, 72 h, Senescent, log (dose) [M] -5.66, 72 h, mean n=3 (Fig 3C), read-out: Mean % Cell Survival",80%
same,viability at 1 µM,"[1]; Homo sapiens, IMR-90, 72 h, Senescent, log (dose) [M] -6, 72 h, mean n=3 (Fig 3C), read-out: Mean % Cell Survival",93.5%
same,viability at 0.4677 µM,"[1]; Homo sapiens, IMR-90, 72 h, Senescent, log (dose) [M] -6.33, 72 h, mean n=3 (Fig 3C), read-out: Mean % Cell Survival",108%
same,viability at 0.2188 µM,"[1]; Homo sapiens, IMR-90, 72 h, Senescent, log (dose) [M] -6.66, 72 h, mean n=3 (Fig 3C), read-out: Mean % Cell Survival",95.6%
same,viability at 0.1 µM,"[1]; Homo sapiens, IMR-90, 72 h, Senescent, log (dose) [M] -7, 72 h, mean n=3 (Fig 3C), read-out: Mean % Cell Survival",105%
same,viability at 0.04677 µM,"[1]; Homo sapiens, IMR-90, 72 h, Senescent, log (dose) [M] -7.33, 72 h, mean n=3 (Fig 3C), read-out: Mean % Cell Survival",113%
same,viability at 0.02188 µM,"[1]; Homo sapiens, IMR-90, 72 h, Senescent, log (dose) [M] -7.66, 72 h, mean n=3 (Fig 3C), read-out: Mean % Cell Survival",105%
same,viability at 0.01 µM,"[1]; Homo sapiens, IMR-90, 72 h, Senescent, log (dose) [M] -8, 72 h, mean n=3 (Fig 3C), read-out: Mean % Cell Survival",110%
same,viability at 10 µM,"[1]; Homo sapiens, IMR-90, senescence, log (dose) [M] -5, individual replicates (Fig 3D), read-out: % Cell Survival",4.7%
same,viability at 2.188 µM,"[1]; Homo sapiens, IMR-90, senescence, log (dose) [M] -5.66, individual replicates (Fig 3D), read-out: % Cell Survival",71.2%
same,viability at 0.04677 µM,"[1]; Homo sapiens, IMR-90, senescence, log (dose) [M] -7.33, individual replicates (Fig 3D), read-out: % Cell Survival",116%
same,IC50,"[1]; Homo sapiens, IMR-90, OIS model, 4-OHT-induced IMR90 ER:RAS, nuclei count, 72 h",2.6 µM
same,dose showing the clearest senolytic effect,"[1]; OIS IMR90 ER:RAS, Hoechst nuclei count, marginal effect on normal cells",4.6 µM
same,senolytic activity (in words),"[1]; experimental screen, OIS IMR90 ER:RAS",clear senolytic action
same,viability at 10 µM,"[2]; IMR-90, 72 h, Control, log (dose) [M] -5, 72 h, mean n=3 (Fig 3C), read-out: Mean % Cell Survival",37.6%
same,viability at 4.677 µM,"[2]; IMR-90, 72 h, Control, log (dose) [M] -5.33, 72 h, mean n=3 (Fig 3C), read-out: Mean % Cell Survival",87%
same,viability at 2.188 µM,"[2]; IMR-90, 72 h, Control, log (dose) [M] -5.66, 72 h, mean n=3 (Fig 3C), read-out: Mean % Cell Survival",87.7%
same,viability at 1 µM,"[2]; IMR-90, 72 h, Control, log (dose) [M] -6, 72 h, mean n=3 (Fig 3C), read-out: Mean % Cell Survival",87.1%
same,viability at 0.4677 µM,"[2]; IMR-90, 72 h, Control, log (dose) [M] -6.33, 72 h, mean n=3 (Fig 3C), read-out: Mean % Cell Survival",85.5%
same,viability at 0.2188 µM,"[2]; IMR-90, 72 h, Control, log (dose) [M] -6.66, 72 h, mean n=3 (Fig 3C), read-out: Mean % Cell Survival",86.2%
same,viability at 0.1 µM,"[2]; IMR-90, 72 h, Control, log (dose) [M] -7, 72 h, mean n=3 (Fig 3C), read-out: Mean % Cell Survival",85.1%
same,viability at 0.04677 µM,"[2]; IMR-90, 72 h, Control, log (dose) [M] -7.33, 72 h, mean n=3 (Fig 3C), read-out: Mean % Cell Survival",87.3%
same,viability at 0.02188 µM,"[2]; IMR-90, 72 h, Control, log (dose) [M] -7.66, 72 h, mean n=3 (Fig 3C), read-out: Mean % Cell Survival",88.8%
same,viability at 0.01 µM,"[2]; IMR-90, 72 h, Control, log (dose) [M] -8, 72 h, mean n=3 (Fig 3C), read-out: Mean % Cell Survival",93%
same,viability at 4.677 µM,"[2]; IMR-90, control, log (dose) [M] -5.33, individual replicates (Fig 3D), read-out: % Cell Survival",83%
same,viability at 2.188 µM,"[2]; IMR-90, control, log (dose) [M] -5.66, individual replicates (Fig 3D), read-out: % Cell Survival",83.6%
same,viability at 1 µM,"[2]; IMR-90, control, log (dose) [M] -6, individual replicates (Fig 3D), read-out: % Cell Survival",78.9%
same,viability at 0.4677 µM,"[2]; IMR-90, control, log (dose) [M] -6.33, individual replicates (Fig 3D), read-out: % Cell Survival",82.5%
same,viability at 0.2188 µM,"[2]; IMR-90, control, log (dose) [M] -6.66, individual replicates (Fig 3D), read-out: % Cell Survival",81.2%
same,viability at 0.1 µM,"[2]; IMR-90, control, log (dose) [M] -7, individual replicates (Fig 3D), read-out: % Cell Survival",74.3%
same,viability at 0.01 µM,"[2]; IMR-90, control, log (dose) [M] -8, individual replicates (Fig 3D), read-out: % Cell Survival",85.3%
same,IC50,"[2]; IMR-90, OIS model, non-senescent IMR90 ER:RAS, nuclei count, 72 h",26 µM
same,viability at 10 µM,"[3]; Homo sapiens, A549, log (dose) [M] -5, Senescent cells, mean, read-out: Mean % Cell Survival",25.9%
same,viability at 4.68 µM,"[3]; Homo sapiens, A549, log (dose) [M] -5.33, Senescent cells, mean, read-out: Mean % Cell Survival",55.3%
same,viability at 2.19 µM,"[3]; Homo sapiens, A549, log (dose) [M] -5.66, Senescent cells, mean, read-out: Mean % Cell Survival",103%
same,viability at 1 µM,"[3]; Homo sapiens, A549, log (dose) [M] -6, Senescent cells, mean, read-out: Mean % Cell Survival",115%
same,viability at 0.468 µM,"[3]; Homo sapiens, A549, log (dose) [M] -6.33, Senescent cells, mean, read-out: Mean % Cell Survival",104%
same,viability at 0.219 µM,"[3]; Homo sapiens, A549, log (dose) [M] -6.66, Senescent cells, mean, read-out: Mean % Cell Survival",126%
same,viability at 0.1 µM,"[3]; Homo sapiens, A549, log (dose) [M] -7, Senescent cells, mean, read-out: Mean % Cell Survival",85.3%
same,viability at 0.0468 µM,"[3]; Homo sapiens, A549, log (dose) [M] -7.33, Senescent cells, mean, read-out: Mean % Cell Survival",89.9%
same,viability at 0.0219 µM,"[3]; Homo sapiens, A549, log (dose) [M] -7.66, Senescent cells, mean, read-out: Mean % Cell Survival",99.8%
same,viability at 0.01 µM,"[3]; Homo sapiens, A549, log (dose) [M] -8, Senescent cells, mean, read-out: Mean % Cell Survival",95.8%
same,IC50,"[3]; Homo sapiens, TIS model, etoposide-induced senescent A549, nuclei count, 72 h",5.7 µM
same,concentration at which a senolytic effect was reached,"[3]; TIS A549, Hoechst labelling, marginal or no effect on normal cells",4.64 µM
same,senolytic action (in words),"[3]; experimental screen, TIS senescent A549",strong senolytic action
same,% Cell Survival,[3]; log (dose) [M] -5,26.9419% and 20.9924% and 29.7526%
same,% Cell Survival,[3]; log (dose) [M] -5.33,57.8726% and 51.7176% and 56.1849%
same,% Cell Survival,[3]; log (dose) [M] -5.66,111.826% and 87.7863% and 107.943%
same,% Cell Survival,[3]; log (dose) [M] -6,147.166% and 101.59% and 95.3776%
same,% Cell Survival,[3]; log (dose) [M] -6.33,97.7607% and 104.262% and 110.807%
same,% Cell Survival,[3]; log (dose) [M] -6.66,107.348% and 137.468% and 133.789%
same,% Cell Survival,[3]; log (dose) [M] -7,106.298% and 85.6234% and 63.9323%
same,% Cell Survival,[3]; log (dose) [M] -7.33,97.7607% and 95.0382% and 76.8229%
same,% Cell Survival,[3]; log (dose) [M] -7.66,110.287% and 102.735% and 86.4583%
same,% Cell Survival,[3]; log (dose) [M] -8,107.348% and 95.9288% and 84.0495%
